Source: PubChem BioAssay AID248 (DTP/NCI, 2004)
Inconclusive results and toxic doses are left out. No stated cut-off is given here; in the data, active means T/C of 150% or more; inactive means T/C below 125%.

Tested on: L1210 leukemia ip in BDF1 mice, survival T/C
Test: NCI In Vivo Anticancer Drug Screen. Data for tumor model L1210 Leukemia (intraperitoneal) in B6D2F1 (BDF1) mice
Conditions: endpoint: mean survival time, higher = longer survival
In short: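 Mice bearing the transplanted tumor received compound or vehicle. Survival of the treated group was divided by that of the vehicle-treated control group to give the ratio.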

[1] = dose: 200.0 mg/kg/injection, schedule: Q01DX009 (ip), vehicle: saline with Tween-80
[2] = dose: 100.0 mg/kg/injection, schedule: Q01DX009 (ip), vehicle: saline
[3] = dose: 200.0 mg/kg/injection, schedule: Q01DX009 (ip), vehicle: saline
[4] = dose: 400.0 mg/kg/injection, schedule: Q01DX009 (ip), vehicle: saline
[5] = dose: 100.0 mg/kg/injection, schedule: Q04DX003 (ip), vehicle: Klucel (hydroxypropylcellulose) (HPC)
[6] = dose: 200.0 mg/kg/injection, schedule: Q04DX003 (ip), vehicle: Klucel (hydroxypropylcellulose) (HPC)
[7] = dose: 400.0 mg/kg/injection, schedule: Q04DX003 (ip), vehicle: Klucel (hydroxypropylcellulose) (HPC)
[8] = dose: 100.0 mg/kg/injection, schedule: Q01DX001 (ip), vehicle: saline
[9] = dose: 200.0 mg/kg/injection, schedule: Q01DX001 (ip), vehicle: saline
[10] = dose: 100.0 mg/kg/injection, schedule: Q04DX003 (ip), vehicle: saline with Tween-80
[11] = dose: 200.0 mg/kg/injection, schedule: Q04DX003 (ip), vehicle: saline with Tween-80

Measured: T/C

Cc1nc(=S)[nH][nH]1
inactive: dose: 100.0 mg/kg/injection, schedule: Q01DX009 (ip), vehicle: saline with Tween-80 102 % of control | dose: 100.0 mg/kg/injection, schedule: Q04DX002 (ip), vehicle: saline 103 % of control | [1] 122 % of control | dose: 200.0 mg/kg/injection, schedule: Q04DX002 (ip), vehicle: saline 94 % of control | dose: 400.0 mg/kg/injection, schedule: Q01DX009 (ip), vehicle: saline with Tween-80 96 % of control | dose: 400.0 mg/kg/injection, schedule: Q04DX002 (ip), vehicle: saline 87 % of control

C1CN(CC2CO2)CCO1 (configuration not stated)
inactive: [2] 105 % of control | [3] 117 % of control | [4] 105 % of control

S=C1NC2CCCc3ccccc3C2O1 (configuration not stated)
inactive: [5] 111 % of control | [6] 113 % of control | [7] 107 % of control

CCCOC(C)CC(c1ccccc1)(c1ccccc1)c1ccccc1 (configuration not stated)
inactive: dose: 12.5 mg/kg/injection, schedule: Q01DX009 (ip), vehicle: saline with Tween-80 98 % of control | dose: 25.0 mg/kg/injection, schedule: Q01DX009 (ip), vehicle: saline with Tween-80 95 % of control | dose: 50.0 mg/kg/injection, schedule: Q01DX009 (ip), vehicle: saline with Tween-80 91 % of control | [1] 90 % of control

Cc1ccc([Si](C)(C)[Si](C)C)cc1
inactive: [5] 98 % of control | [6] 102 % of control | [7] 105 % of control

CC1CCc2cc3c(cc2C1=O)sc1ccccc13 (configuration not stated)
inactive: [8] 108 % of control | [9] 105 % of control | dose: 400.0 mg/kg/injection, schedule: Q01DX001 (ip), vehicle: saline 89 % of control

OCC1OC(c2ccccc2)OC(CO)C(O)C1O (configuration not stated)
inactive: [10] 88 % of control | [11] 88 % of control

OCC12C=CC(CC1)CC2
inactive: dose: 75.0 mg/kg/injection, schedule: Q04DX002 (ip), vehicle: gum acacia 92 % of control | dose: 150.0 mg/kg/injection, schedule: Q04DX002 (ip), vehicle: gum acacia 100 % of control | dose: 300.0 mg/kg/injection, schedule: Q04DX002 (ip), vehicle: gum acacia 92 % of control

CCCCC1(CC)C(=O)NC(=S)NC1=O
inactive: [8] 114 % of control | [9] 104 % of control

CCCCCCCCCCCCCCCCOc1ccc(Sc2ccc([N+](=O)[O-])cc2)cc1
inactive: dose: 400.0 mg/kg/injection, schedule: Q01DX001 (ip), vehicle: Klucel (hydroxypropylcellulose) (HPC) 87 % of control

Cc1c(CC(Cl)Cl)cc(-c2ccccc2)c2ccccc12
inactive: [5] 96 % of control | [6] 92 % of control | [7] 100 % of control

O=C1c2ccccc2CCC12OC2c1ccc(Cl)cc1 (configuration not stated)
inactive: dose: 50.0 mg/kg/injection, schedule: Q01DX009 (ip), vehicle: saline 102 % of control | [2] 107 % of control | [10] 108 % of control | [3] 98 % of control | [11] 95 % of control | [4] 100 % of control | dose: 400.0 mg/kg/injection, schedule: Q04DX003 (ip), vehicle: saline with Tween-80 103 % of control

CC(=O)Nc1c(Cl)c(Cl)c2c(c1Cl)C(=O)c1cc(Cl)ccc1-2
inactive: dose: 100.0 mg/kg/injection, schedule: Q01DX001 (ip), vehicle: carboxymethylcellulose (CMC) 92 % of control | dose: 100.0 mg/kg/injection, schedule: Q01DX Z (ip), vehicle: carboxymethylcellulose (CMC) 102 % of control | dose: 200.0 mg/kg/injection, schedule: Q01DX001 (ip), vehicle: carboxymethylcellulose (CMC) 90 % of control | dose: 200.0 mg/kg/injection, schedule: Q01DX Z (ip), vehicle: carboxymethylcellulose (CMC) 98 % of control | dose: 400.0 mg/kg/injection, schedule: Q01DX001 (ip), vehicle: carboxymethylcellulose (CMC) 95 % of control | dose: 400.0 mg/kg/injection, schedule: Q01DX Z (ip), vehicle: carboxymethylcellulose (CMC) 98 % of control | dose: 800.0 mg/kg/injection, schedule: Q01DX Z (ip), vehicle: carboxymethylcellulose (CMC) 102 % of control
